The values that follow come from US10118918B2, “PRMT5 inhibitors and uses thereof” (Epizyme, Inc., priority 2012, dated 2018).

The test system of assay [1] is symmetric di-methyl arginine in Z-138 cells. The assay is described as follows: Z-138 Methylation Assay (In Cell Western for symmetric di-methyl arginine and DNA content). It counts as cell-based. The following applies: 96 hours incubation, read-out: ICW EC50. The source says: [formula] Where top and bottom are the normally allowed to float, but may be fixed at 100 or 0 respectively in a 3-parameter fit. The Hill Coefficient normally allowed to float but may also be fixed at 1 in a 3-parameter fit. Y is the % inhibition and X is the compound concentration. Z-138 Methylation Assay
Z-138 suspension cells were purchased from ATCC (American Type Culture Collection, Manassas, Va.). RPMI/Glutamax medium, penicillin-streptomycin, heat inactivated fetal bovine serum, and D-PBS were purchased from Life Technologies, Grand Island, N.Y., USA. Odyssey blocking buffer, 800CW goat anti-rabbit IgG (H+L) antibody, and Licor Odyssey infrared scanner were purchased from Licor Biosciences, Lincoln, Nebr., USA. Symmetric di-methyl arginine antibody was purchased from EMD Millipore, Billerica, Mass., USA. 16% Paraformaldehyde was purchased from Electron Microscopy Sciences, Hatfield, Pa., USA.
Z-138 suspension cells were maintained in growth medium (RPMI 1640 supplemented with 10% v/v heat inactivated fetal bovine serum and 100 units/mL penicillin-streptomycin) and cultured at 37° C. under 5% CO2.
Cell Treatment, in Cell Western (ICW) for Detection of Symmetric Di-Methyl Arginine and DNA Content.
Z-138 cells were seeded in assay medium at a concentration of 50,000 cells per mL to a 384-well cell culture plate with 50 μL per well. Compound (100 nL) from 384 well source plates was added directly to 384 well cell plate. Plates were incubated at 37° C., 5% CO2 for 96 hours. After four days of incubation, 40 μL of cells from incubated plates were added to poly-D-lysine coated 384 well culture plates (BD Biosciences 356697). Plates were incubated at room temperature for 30 minutes then incubated at 37° C., 5% CO2 for 5 hours. After the incubation, 40 μL per well of 8% paraformaldehyde in PBS (16% paraformaldahyde was diluted to 8% in PBS) was added to each plate and incubated for 30 minutes. Plates were transferred to a Biotek 405 plate washer and washed 5 times with 100 μL per well of wash buffer (IX PBS with 0.1% Triton X-100 (v/v)). Next 30 μL per well of Odyssey blocking buffer were added to each plate and incubated 1 hour at room temperature. Blocking buffer was removed and 20 μL per well of primary antibody was added (symmetric di-methyl arginine diluted 1:100 in Odyssey buffer with 0.1% Tween 20 (v/v)) and plates were incubated overnight (16 hours) at 4° C. Plates were washed 5 times with 100 μL per well of wash buffer. Next 20 μL per well of secondary antibody was added (1:200 800CW goat anti-rabbit IgG (H+L) antibody, 1:1000 DRAQ5 (Biostatus limited) in Odyssey buffer with 0.1% Tween 20 (v/v)) and incubated for 1 hour at room temperature. The plates were washed 5 times with 100 μL per well wash buffer then 1 time with 100 μL per well of water. Plates were allowed to dry at room temperature then imaged on the Licor Odyssey machine which measures integrated intensity at 700 nm and 800 nm wavelengths. Both 700 and 800 channels were scanned.
First, the ratio for each well was determined by:
Each plate included fourteen control wells of DMSO only treatment (minimum inhibition) as well as fourteen control wells for maximum inhibition treated with 3 μM of a reference compound (Background wells). The average of the ratio values for each control type was calculated and used to determine the percent inhibition for each test well in the plate. Reference compound was serially diluted three-fold in DMSO for a total of nine test concentrations, beginning at 3 μM. Percent inhibition was determined and IC50 curves were generated using triplicate wells per concentration of compound. […]

The target of another assay is PRMT5/MEP50 (Homo sapiens (Human), UniProt O14744). The assay is described as follows: PRMT5 Biochemical Assay (PRMT5/MEP50 enzyme assay on peptide substrate, 3H-SAM Flashplate). The following applies: PRMT5/MEP50 4 nM, 3H-SAM 75 nM, peptide 40 nM. From the text:
S-adenosylmethionine (SAM), S-adenosylhomocysteine (SAH), bicine, KCl, Tween20, dimethylsulfoxide (DMSO), bovine skin gelatin (BSG), and Tris(2-carboxyethyl)phosphine hydrochloride solution (TCEP) were purchased from Sigma-Aldrich at the highest level of purity possible. ^3H-SAM was purchase from American Radiolabeled Chemicals with a specific activity of 80 Ci/mmol. 384-well streptavidin Flashplates were purchased from PerkinElmer.
Peptide representative of human histone H4 residues 1-15 was synthesized with a C-terminal linker-affinity tag motif and a C-terminal amide cap by 21st Century Biochemicals. The peptide was high high-performance liquid chromatography (HPLC) purified to greater than 95% purity and confirmed by liquid chromatography mass spectrometry (LC-MS). The sequence was Ac-[…][K-Biot]-amide (SEQ ID NO.: 3).
Full-length human PRMT5 (NM_006109.3) transcript variant 1 clone was amplified from a fetal brain cDNA library, incorporating flanking 5′ sequence encoding a FLAG tag ([…]) (SEQ ID NO.: 4) fused directly to Ala 2 of PRMT5. Full-length human MEP50 (NM_024102) clone was amplified from a human testis cDNA library incorporating a 5′ sequence encoding a 6-histidine tag (MHHHHHH) (SEQ ID NO.: 5) fused directly to Arg 2 of MEP50. The amplified genes were sublconed into pENTR/D/TEV (Life Technologies) and subsequently transferred by Gateway™ attL x attR recombination to pDEST8 baculvirus expression vector (Life Technologies).
Recombinant baculovirus and Baculovirus-Infected Insect Cells (BIIC) were generated according to Bac-to-Bac kit instructions (Life Technologies) and Wasilko, 2006, respectively. Protein over-expression was accomplished by infecting exponentially growing Spodoptera frugiperda (SF9) cell culture at 1.2×10^6 cell/ml with a 5000 fold dilution of BIIC stock. Infections were carried out at 27° C. for 72 hours, harvested by centrifugation, and stored at −80° C. for purification.
Flag-PRMT5/6His-MeP50 was eluted with 300 mM Imidazole in the same buffer. The purity of recovered protein was 87%. Reference: Wasilko, D. J. and S. E. Lee: “TIPS: titerless infected-cells preservation and scale-up” Bioprocess J., 5 (2006), pp. 29-32.
General Procedure for PRMT5/MEP50 Enzyme Assays on Peptide Substrates.
The assays were all performed in a buffer consisting of 20 mM Bicine (pH=7.6), 1 mM TCEP, 0.005% BSG, and 0.002% Tween20, prepared on the day of use. Compounds in 100% DMSO (1 ul) were spotted into a polypropylene 384-well V-bottom plates (Greiner) using a Platemate Plus outfitted with a 384-channel head (Thermo Scientific). DMSO (1 ul) was added to Columns 11, 12, 23, 24, rows A-H for the maximum signal control and 1 ul of SAH, a known product and inhibitor of PRMT5/MEP50, was added to columns 11, 12, 23, 24, rows I-P for the minimum signal control. A cocktail (40 ul) containing the PRMT5/MEP50 enzyme and the peptide was added by Multidrop Combi (Thermo-Fisher). The compounds were allowed to incubate with PRMT5/MEP50 for 30 min at 25 degrees Celsius, then a cocktail (10 ul) containing ^3H-SAM was added to initiate the reaction (final volume=51 ul). The final concentrations of the components were as follows: PRMT5/MEP50 was 4 nM, ^3H-SAM was 75 nM, peptide was 40 nM, SAH in the minimum signal control wells was 100 uM, and the DMSO concentration was 1%. The assays were stopped by the addition of non-radioactive SAM (10 ul) to a final concentration of 600 uM, which dilutes the ^3H-SAM to a level where its incorporation into the peptide substrate is no longer detectable. 50 ul of the reaction in the 384-well polypropylene plate was then transferred to a 384-well Flashplate and the biotinylated peptides were allowed to bind to the streptavidin surface for at least 1 hour before being washed three times with 0.1% Tween20 in a Biotek ELx405 plate washer. […]

The next assay deals with Z-138 cells. The assay is described as follows: Z-138 Proliferation Assay (Cell Titer Glo). It counts as cell-based. The settings on record: Homo sapiens, 120 h, 5 days incubation. From the text:
[formula] Z-138 Proliferation Assay
Z-138 suspension cells were purchased from ATCC (American Type Culture Collection, Manassas, Va.). RPMI/Glutamax medium, penicillin-streptomycin, heat inactivated fetal bovine serum were purchased from Life Technologies, Grand Island, N.Y., USA. V-bottom polypropylene 384-well plates were purchased from Greiner Bio-One, Monroe, N.C., USA. Cell culture 384-well white opaque plates were purchased from Perkin Elmer, Waltham, Mass., USA. Cell-Titer Glo® was purchased from Promega Corporation, Madison, Wis., USA. SpectraMax M5 plate reader was purchased from Molecular Devices LLC, Sunnyvale, Calif., USA.
Z-138 suspension cells were maintained in growth medium (RPMI 1640 supplemented with 10% v/v heat inactivated fetal bovine serum and cultured at 37° C. under 5% CO2. Under assay conditions, cells were incubated in assay medium (RPMI 1640 supplemented with 10% v/v heat inactivated fetal bovine serum and 100 units/mL penicillin-streptomycin) at 37° C. under 5% CO2.
For the assessment of the effect of compounds on the proliferation of the Z-138 cell line, exponentially growing cells were plated in 384-well white opaque plates at a density of 10,000 cells/ml in a final volume of 50 μl of assay medium. A compound source plate was prepared by performing triplicate nine-point 3-fold serial dilutions in DMSO, beginning at 10 mM (final top concentration of compound in the assay was 20 μM and the DMSO was 0.2%). A 100 nL aliquot from the compound stock plate was added to its respective well in the cell plate. […] After addition of compounds, assay plates were incubated for 5 days at 37° C., 5% CO2, relative humidity >90%.
Cell viability was measured by quantitation of ATP present in the cell cultures, adding 35 μl of Cell Titer Glo® reagent to the cell plates. Luminescence was read in the SpectraMax M5 microplate reader. The concentration of compound inhibiting cell viability by 50% was determined using a 4-parametric fit of the normalized dose response curves.

pEC50, pIC50: −log10 of the molar value. Read-outs that look alike come from different tables or passages of the source.

PRMT5/MEP50, sequence (O14744 other isoform, or with tags, fused parts or gaps): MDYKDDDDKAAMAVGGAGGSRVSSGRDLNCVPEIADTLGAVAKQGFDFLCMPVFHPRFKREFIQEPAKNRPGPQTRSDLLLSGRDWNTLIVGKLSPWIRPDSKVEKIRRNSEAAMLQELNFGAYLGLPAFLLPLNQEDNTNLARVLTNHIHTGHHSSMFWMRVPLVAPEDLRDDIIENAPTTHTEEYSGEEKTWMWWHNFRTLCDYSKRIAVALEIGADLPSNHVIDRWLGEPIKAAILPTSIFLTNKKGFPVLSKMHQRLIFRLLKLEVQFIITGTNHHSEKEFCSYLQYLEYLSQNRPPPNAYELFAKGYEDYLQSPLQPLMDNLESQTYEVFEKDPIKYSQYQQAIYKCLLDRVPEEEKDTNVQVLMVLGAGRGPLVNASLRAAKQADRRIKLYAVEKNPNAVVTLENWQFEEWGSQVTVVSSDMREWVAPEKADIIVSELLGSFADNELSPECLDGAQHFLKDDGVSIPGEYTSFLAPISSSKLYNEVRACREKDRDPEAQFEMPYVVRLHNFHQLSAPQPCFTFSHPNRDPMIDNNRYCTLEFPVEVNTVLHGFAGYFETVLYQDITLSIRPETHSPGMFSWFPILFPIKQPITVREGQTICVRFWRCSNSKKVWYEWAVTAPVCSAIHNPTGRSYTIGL
PRMT5/MEP50, sequence (Q9BQA1 other isoform, or with tags, fused parts or gaps partner): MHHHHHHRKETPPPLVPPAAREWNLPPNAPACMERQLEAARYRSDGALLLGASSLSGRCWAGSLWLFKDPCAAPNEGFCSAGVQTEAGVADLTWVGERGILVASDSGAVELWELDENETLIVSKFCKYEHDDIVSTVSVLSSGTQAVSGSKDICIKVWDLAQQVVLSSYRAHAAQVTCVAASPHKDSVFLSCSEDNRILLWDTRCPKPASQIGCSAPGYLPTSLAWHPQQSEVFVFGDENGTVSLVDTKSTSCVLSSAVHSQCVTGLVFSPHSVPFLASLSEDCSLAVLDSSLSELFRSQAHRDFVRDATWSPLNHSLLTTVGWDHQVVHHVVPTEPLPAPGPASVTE

Usually pEC50 stands for the negative decadic logarithm of the EC50, by convention in mol/L. Broadly, the pIC50 is −log10 of the IC50, conventionally taken in molar units. Take “2-(2-(1H-pyrazol-3-yl)phenoxy)-N-(2-hydroxy-3-(isoindolin-2-yl)propyl)acetamide [compound 8]”: in assay [1], the pEC50 is 6.00 to 7.00. At PRMT5/MEP50, the pIC50 is 6.00 to 7.00.
With `O=C(COc1cccc2cccnc12)NC[C@H](O)CN1Cc2ccccc2C1` [compound 4], the pEC50 in assay [1] (Homo sapiens) was 6.00 to 7.00; with Z-138 cells, 5.00 to 6.00.
On to `Cn1cnc2ccc(-c3cccc(OCC(O)CN4Cc5ccccc5C4)c3)cc21` (stereo not shown) [compound 9, 1-(isoindolin-2-yl)-3-(3-(1-methyl-1H-benzo[d]imidazol-6-yl)phenoxy)propan-2-ol], for which, at PRMT5/MEP50, the pIC50 is 5.00 to 6.00.
Regarding `CC(C)(C)OC(=O)Nc1cccc(C(=O)NCC(O)CN2Cc3ccccc3C2)c1` (stereo not shown) [compound 11, tert-butyl (3-((2-hydroxy-3-(isoindolin-2-yl)propyl)carbamoyl)phenyl)carbamate], the pEC50 in assay [1] (Homo sapiens) was 5.00 to 6.00. Moreover, on PRMT5/MEP50, the pIC50 was 6.00 to 7.00.
Regarding `CS(=O)(=O)c1ccccc1OCC(=O)NCC(O)CN1Cc2ccccc2C1` (stereo not shown) [compound 12, N-(2-hydroxy-3-(isoindolin-2-yl)propyl)-2-(2-(methylsulfonyl)phenoxy)acetamide], the pEC50 in assay [1] (Homo sapiens) was 6.00 to 7.00. In addition, the pIC50 on PRMT5/MEP50 was 6.00 to 7.00.
On to `O=C(COc1cccc2cccnc12)NC[C@@H](O)CN1Cc2ccccc2C1` [compound 16, (R)—N-(2-hydroxy-3-(isoindolin-2-yl)propyl)-2-(quinolin-8-yloxy)acetamide], for which the pIC50 at PRMT5/MEP50 is 5.00 to 6.00.
Same read-out and setting: the figure for `COc1ccc(Cn2cnc3ccc(-c4ccc(OCC(O)CN5Cc6ccccc6C5)cc4)cc32)cc1` (stereo not shown) [compound 18] is 5.00 to 6.00.
As to `OC(COc1cccc(CNC2CCCC2)c1)CN1Cc2ccccc2C1` (stereo not shown) [compound 20, 1-(3-((cyclopentylamino)methyl)phenoxy)-3-(isoindolin-2-yl)propan-2-ol], the pIC50 on PRMT5/MEP50 is 5.00 to 6.00. This compound also had a pEC50 with Z-138 cells of 4.30 to 5.00.
As for `CN(C)S(=O)(=O)c1ccccc1OCC(=O)NC[C@@H](O)CN1Cc2ccccc2C1` [compound 21], the pEC50 in assay [1] (Homo sapiens) was 6.00 to 7.00; in the assay with Z-138 cells it was < 4.70.
As for `CN1CCOc2cccc(OCC(=O)NC[C@@H](O)CN3Cc4ccccc4C3)c21` [compound 22], the pEC50 in assay [1] (Homo sapiens) was 5.00 to 6.00.
In the case of `O=C(NC[C@@H](O)CN1Cc2ccccc2C1)c1cccc(NC2CCOCC2)c1` [compound 24], the pIC50 on PRMT5/MEP50 was > 7.00.
Turning to `O=C(NC[C@H](O)CN1Cc2ccccc2C1)c1cncc(OC2CCOCC2)c1` [compound 31], the pEC50 in assay [1] (Homo sapiens) is 5.00 to 6.00.
Take `CC(=O)N1CCC(Nc2cc(C(=O)NC[C@H](O)CN3Cc4ccccc4C3)ncn2)CC1` [compound 39]: at PRMT5/MEP50, the pIC50 was > 7.00. Also, in the assay on Z-138 cells, the pEC50 is 6.00 to 7.00.
On to `CC(=O)N1CC(Nc2cc(C(=O)NC[C@H](O)CN3CCc4ccccc43)ncn2)C1` [compound 41], for which the pIC50 at PRMT5/MEP50 is 5.00 to 6.00. In the assay on Z-138 cells, this compound had a pEC50 of 4.30 to 5.00.
For `CC(=O)N1CCC(Nc2cc(C(=O)NC[C@H](O)CN3CCCCc4ccccc43)ccn2)CC1` [compound 51], the negative logarithm of the IC50 (pIC50) on PRMT5/MEP50 is < 5.00.
Still for that read-out and setting: the figure for `O=C(NCCCN1Cc2ccccc2C1)c1cc(NC2COC2)ncn1` [compound 52] is < 5.00.
Regarding `CC(=O)N1CCC(Nc2cc(C(=O)NC[C@H](O)CN3CCCc4ccccc4C3)ccn2)CC1` [compound 53], the pEC50 in assay [1] (Homo sapiens) is < 6.00. Moreover, the negative-log IC50 (pIC50) on PRMT5/MEP50 was 5.00 to 6.00.
In the case of “N-(2-hydroxy-3-(isoindolin-2-yl)propyl)-3-((tetrahydro-2H-pyran-4-yl)amino)benzamide [compound 6]”, the pIC50 on PRMT5/MEP50 was < 5.00.
For the compound “tert-butyl (3-((2-hydroxy-3-(isoindolin-2-yl)propyl)carbamoyl)phenyl)carbamate [compound 2]”, the pIC50 on PRMT5/MEP50 is 5.00 to 6.00.
